biological target: T1, Aurora-2 (Homo sapiens, UniProt O14965); assay: Inhibition assay of Aurora-2 activity (SPA technology); assay type: biochemical; conditions: screened according to the methods of the pharmacology section; read-out: IC50 values for Aurora-2 inhibition
T1 sequence (O14965 1-403): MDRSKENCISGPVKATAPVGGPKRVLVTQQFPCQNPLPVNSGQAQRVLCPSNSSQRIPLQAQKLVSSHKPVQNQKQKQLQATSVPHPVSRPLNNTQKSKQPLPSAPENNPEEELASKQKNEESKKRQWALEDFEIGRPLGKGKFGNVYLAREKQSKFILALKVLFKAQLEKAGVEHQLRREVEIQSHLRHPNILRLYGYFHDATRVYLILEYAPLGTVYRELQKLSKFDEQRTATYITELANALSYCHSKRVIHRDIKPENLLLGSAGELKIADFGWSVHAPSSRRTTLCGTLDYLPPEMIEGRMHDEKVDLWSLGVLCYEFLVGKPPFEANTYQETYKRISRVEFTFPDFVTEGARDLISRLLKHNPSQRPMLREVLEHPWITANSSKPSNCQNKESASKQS
Protocol: The inhibiting activity and the potency of selected compounds is determined through a method of assay based on the use of the SPA technology (Amersham Pharmacia Biotech).
The assay consists of the transfer of radioactivity labelled phosphate moiety by the kinase to a biotinylated substrate. The resulting 33P-labelled biotinylated product is allowed to bind to streptavidin-coated SPA beads (biotin capacity 130 pmol/mg), and light emitted was measured in a scintillation counter.
Inhibition Assay of Aurora-2 Activity
After 60 minutes at room temperature incubation, reaction was stopped and biotinylated peptide captured by adding 100 μl of bead suspension.
Stratification: 100 μl of CsCl2 5 M were added to each well and let stand 4 hour before radioactivity was counted in the Top-Count instrument.
Experimental data were analyzed by the computer program GraphPad Prizm using the four parameter logistic equation: y=bottom+(top−bottom)/(1+10^((logIC50−x)*slope)) where x is the logarithm of the inhibitor concentration, y is the response; y starts at bottom and goes to top with a sigmoid shape.

Structure (SMILES) | IC50
CC(C)(NC(=O)c1cc2c(NC(=O)c3ccc(N4CCOCC4)cc3)n[nH]c2s1)c1ccncc1 [Compound 138, 3-(4-Morpholin-4-yl-benzoylamino)-1H-thieno[2,3-c]pyrazole-5-carboxylic acid (1-methyl-1-pyridin-4-yl-ethyl)-amide] | < 0.02 µM
CC(C)(NC(=O)c1cc2c(NC(=O)c3ccc(Cn4ccnc4)cc3)n[nH]c2s1)c1ccccc1 [Compound 48, 3-(4-Imidazol-1-ylmethyl-benzoylamino)-1H-thieno[2,3-c]pyrazole-5-carboxylic acid (1-methyl-1-phenyl-ethyl)-amide] | < 0.02 µM
CC(C)(NC(=O)c1cc2c(NC(=O)c3ccc(CN4CCC4)cc3)n[nH]c2s1)c1ccccc1 [Compound 53, 3-(4-Azetidin-1-ylmethyl-benzoylamino)-1H-thieno[2,3-c]pyrazole-5-carboxylic acid (1-methyl-1-phenyl-ethyl)-amide] | < 0.02 µM
CC(C)(NC(=O)c1cc2c(NC(=O)c3ccco3)n[nH]c2s1)c1ccccc1 [Compound 24, 3-(2-furoylamino)-N-(1-methyl-1-phenylethyl)-1H-thieno[2,3-c]pyrazole-5-carboxamide] | < 0.02 µM
CC[C@@H](NC(=O)c1cc2c(NC(=O)c3cccs3)n[nH]c2s1)c1ccccc1 [Compound 20, N-[(1R)-1-phenylpropyl]-3-[(thien-2-ylcarbonyl)amino]-1H-thieno[2,3-c]pyrazole-5-carboxamide] | < 0.02 µM
O=C(Nc1n[nH]c2sc(C(=O)NC3(c4ccccc4)CCCC3)cc12)c1ccc(N2CCOCC2)cc1 [Compound 131, 3-(4-Morpholin-4-yl-benzoylamino)-1H-thieno[2,3-c]pyrazole-5-carboxylic acid (1-phenyl-cyclopentyl)-amide] | < 0.02 µM
O=C(Nc1n[nH]c2sc(C(=O)N[C@H](CN3CCCC3)c3ccccc3)cc12)c1cccs1 [Compound 19, N-[(1S)-1-phenyl-2-pyrrolidin-1-ylethyl]-3-[(thien-2-ylcarbonyl)amino]-1H-thieno[2,3-c]pyrazole-5-carboxamide] | < 0.02 µM
CC(C)(NC(=O)c1cc2c(NC(=O)c3ccc(N4CCOCC4)cc3)n[nH]c2s1)c1ccccc1F [Compound 148, 3-(4-Morpholin-4-yl-benzoylamino)-1H-thieno[2,3-c]pyrazole-5-carboxylic acid [1-(2-fluoro-phenyl)-1-methyl-ethyl]-amide] | < 0.02 µM
CC(C)(NC(=O)c1cc2c(NC(=O)c3ccc(CN4CCCCC4)cc3)n[nH]c2s1)c1ccc(F)cc1 [Compound 59, 3-(4-Piperidin-1-ylmethyl-benzoylamino)-1H-thieno[2,3-c]pyrazole-5-carboxylic acid [1-(4-fluoro-phenyl)-1-methyl-ethyl]-amide] | < 0.02 µM
CC(C)(NC(=O)c1cc2c(NC(=O)c3ccc(CN4CCN(C(C)(C)C)CC4)cc3)n[nH]c2s1)c1ccccc1 [Compound 57, 3-[4-(4-tert-Butyl-piperazin-1-ylmethyl)-benzoylamino]-1H-thieno[2,3-c]pyrazole-5-carboxylic acid (1-methyl-1-phenyl-ethyl)-amide] | < 0.02 µM
CC(C)(NC(=O)c1cc2c(NC(=O)c3ccc(N4CCOCC4)cc3)n[nH]c2s1)c1ccc(F)cc1 [Compound 150, 3-(4-Morpholin-4-yl-benzoylamino)-1H-thieno[2,3-c]pyrazole-5-carboxylic acid [1-(4-fluoro-phenyl)-1-methyl-ethyl]-amide] | < 0.02 µM
COc1cccc(C(C)(C)NC(=O)c2cc3c(NC(=O)c4ccc(N5CCOCC5)cc4)n[nH]c3s2)c1 [Compound 140, 3-(4-Morpholin-4-yl-benzoylamino)-1H-thieno[2,3-c]pyrazole-5-carboxylic acid [1-(3-methoxy-phenyl)-1-methyl-ethyl]-amide] | < 0.02 µM

Results, then the molecule that gave them:

IC50 | Structure (SMILES)
< 0.02 µM | CC(C)(NC(=O)c1cc2c(NC(=O)c3cccs3)n[nH]c2s1)c1cccc(F)c1 [Compound 124, 3-[(Thiophene-2-carbonyl)-amino]-1H-thieno[2,3-c]pyrazole-5-carboxylic acid [1-(3-fluoro-phenyl)-1-methyl-ethyl]-amide]
< 0.02 µM | CC(C)(NC(=O)c1cc2c(NC(=O)c3ccc(CN4CCCC4)cc3)n[nH]c2s1)c1ccccc1 [Compound 37, 3-(4-Pyrrolidin-1-ylmethyl-benzoylamino)-1H-thieno[2,3-c]pyrazole-5-carboxylic acid (1-methyl-1-phenyl-ethyl)-amide]
< 0.02 µM | Cn1cccc1C(=O)Nc1n[nH]c2sc(C(=O)NC3(c4ccccc4)CC3)cc12 [Compound 22, 3-{[(1-methyl-1H-pyrrol-2-yl)carbonyl]amino}-N-(1-phenylcyclopropyl)-1H-thieno[2,3-c]pyrazole-5-carboxamide]
< 0.02 µM | CN1CCN(c2ccc(C(=O)Nc3n[nH]c4sc(C(=O)NC5(c6ccccc6)CCCC5)cc34)cc2)CC1 [Compound 34, 3-{[4-(4-methylpiperazin-1-yl)benzoyl]amino}-N-(1-phenylcyclopentyl)-1H-thieno[2,3-c]pyrazole-5-carboxamide]
< 0.02 µM | C[C@@H](NC(=O)c1cc2c(NC(=O)c3ccc(F)cc3)n[nH]c2s1)c1ccc(F)cc1 [Compound 11, 3-[(4-fluorobenzoyl)amino]-N-[(1R)-1-(4-fluorophenyl)ethyl]-1H-thieno[2,3-c]pyrazole-5-carboxamide]
< 0.02 µM | CC(C)(NC(=O)c1cc2c(NC(=O)c3ccc(CN4CCSC4)cc3)n[nH]c2s1)c1ccccc1 [Compound 49, 3-(4-Thiazolidin-3-ylmethyl-benzoylamino)-1H-thieno[2,3-c]pyrazole-5-carboxylic acid (1-methyl-1-phenyl-ethyl)-amide]
< 0.02 µM | CC(C)(NC(=O)c1cc2c(NC(=O)c3ccc(N4CCOCC4)nc3)n[nH]c2s1)c1ccccc1 [Compound 136, 3-[(6-Morpholin-4-yl-pyridine-3-carbonyl)-amino]-1H-thieno[2,3-c]pyrazole-5-carboxylic acid (1-methyl-1-phenyl-ethyl)-amide]
< 0.02 µM | CN1CCN(c2ccc(C(=O)Nc3n[nH]c4sc(C(=O)NC5(c6ccccc6)CC5)cc34)cc2)CC1 [Compound 35, 3-{[4-(4-methylpiperazin-1-yl)benzoyl]amino}-N-(1-phenylcyclopropyl)-1H-thieno[2,3-c]pyrazole-5-carboxamide]
< 0.02 µM | COc1ccc(C(=O)Nc2n[nH]c3sc(C(=O)NC4(c5ccccc5)CC4)cc23)cc1 [Compound 134, 3-(4-Methoxy-benzoylamino)-1H-thieno[2,3-c]pyrazole-5-carboxylic acid (1-phenyl-cyclopropyl)-amide]
< 0.02 µM | CN1CCN(c2ccc(C(=O)Nc3n[nH]c4sc(C(=O)N[C@H](CN5CCOCC5)c5ccccc5)cc34)cc2)CC1 [Compound 31, 3-{[4-(4-methylpiperazin-1-yl)benzoyl]amino}-N-[(1S)-2-morpholin-4-yl-1-phenylethyl]-1H-thieno[2,3-c]pyrazole-5-carboxamide]
< 0.02 µM | CC(C)(NC(=O)c1cc2c(NC(=O)c3cccs3)n[nH]c2s1)c1ccc(F)cc1 [Compound 151, 3-[(Thiophene-2-carbonyl)-amino]-1H-thieno[2,3-c]pyrazole-5-carboxylic acid [1-(4-fluoro-phenyl)-1-methyl-ethyl]-amide]

Reference: patent US8481584B2, “1H-thieno[2,3-c]pyrazole derivatives useful as kinase inhibitors” (Nerviano Medical Sciences S.R.L., priority 2004, dated 2013)
